Assay results published in patent US12203089B2, “Plants having increased tolerance to herbicides” (BASF SE, priority 2015, dated 2025).

What was measured:
Format in all cases: in vivo
Brassica napus wildtype [1] = test: Greenhouse herbicide tolerance, pre emergent; settings: 1.95 g/ha, 7 days after treatment
Experimental: (§1) T1/T2 transgenic plants of Brassica napus containing cellulose synthase sequences or mutated gene variants thereof are tested for improved tolerance to herbicides in greenhouse studies with azine herbicides. For the pre-emergence treatment, the herbicides are applied directly after sowing by means of finely distributing nozzles. The containers are irrigated gently to promote germination and growth and subsequently covered with transparent plastic hoods until the plants have rooted. This cover causes uniform germination of the test plants, unless this has been impaired by the herbicides. For post emergence treatment, the test plants are first grown to a height of 3 to 15 cm, depending on the plant habit, and only then treated with the herbicides. For this purpose, the test plants are either sown directly, and grown in the same containers or they are first grown separately and transplanted into the test containers a few days prior to treatment.
(§2) Herbicide injury evaluations are taken at 1, 2 and 3 weeks after treatment. Plant biomass reduction is rated on a scale of 0% to 100%, 0% being no reduction of biomass compared to untreated control, and 100% being complete absence of biomass.

[2] = tested on: Brassica napus expressing BnaA03g52020D (SEQ ID 15) variant G1015R; test: Greenhouse herbicide tolerance, pre emergent; settings: 7 days after treatment
Experimental: as §1, §2

[3] = tested on: Brassica napus expressing BnaAnng01240D (SEQ ID 20) variant S1038F; test: Greenhouse herbicide tolerance, pre emergent; settings: 7 days after treatment
Experimental: as §1, §2

[4] = tested on: Brassica napus expressing BnaAnng01240D (SEQ ID 20) variant S1038F; test: Greenhouse herbicide tolerance, post emergent; settings: 7 days after treatment
Experimental: as §1, §2

[5] = tested on: Brassica napus expressing BnaA03g55200D (SEQ ID 12) variant S1038F; test: 6-well plate injury test, T1 seeds on vermiculite; settings: 7 days after treatment
Experimental: (§3) Transgenic Brassica napus plants are assayed for improved tolerance to azine herbicides like e. g. 6-cyclopentyl-N4-(2,3,4,5,6-pentafluorophenyl)-1,3,5-triazine-2,4-diamine in 6-well plates. Therefore, 5-6 T1 seeds are sown on vermiculite and watered with half-strength murashige skoog nutrient solution, pH 5.8 (Murashige and Skoog (1962) Physiologia Plantarum 15: 473-497). Compounds are dissolved in dimethylsulfoxid (DMSO) and added to the medium (final DMSO concentration 0.1%). Multi well plates are incubated in a growth chamber at 22° C., 75% relative humidity and 110 μmol Phot*m^−2*s^−1 with 14: 10 h light: dark photoperiod. Growth inhibition is evaluated seven to ten days after seeding in comparison to wild type plants. Plant injury is rated on a scale of 0% to 100%, 0% being no injury and 100% being complete death.

[6] = tested on: Brassica napus expressing BnaA03g55200D (SEQ ID 12) variant S1041L; test: 6-well plate injury test, T1 seeds on vermiculite; settings: 7 days after treatment
Experimental: as §3

[7] = tested on: Brassica napus expressing BnaAnng01240D (SEQ ID 20) variant S1041L; test: Greenhouse herbicide tolerance, post emergent; settings: 7 days after treatment
Experimental: as §1, §2

Brassica napus wildtype [8] = test: 6-well plate injury test, seeds on vermiculite
Experimental: as §3

[9] = tested on: Brassica napus expressing BnaA01g04600D (SEQ ID 21) variant G1012R; test: 6-well plate injury test, T1 seeds on vermiculite; settings: BnaA01g04600D G1012R event 1, 7 days after treatment
Experimental: as §3

Q: With `Nc1nc(Nc2c(F)c(F)c(F)c(F)c2F)nc(C2CCCC2)n1` [6-cyclopentyl-N4-(2,3,4,5,6-pentafluorophenyl)-1,3,5-triazine-2,4-diamine] as the compound, how does the average phytotox value (Brassica napus wildtype [1]) read?
A: The average phytotox value was 18%.

Q: And the average phytotox value ([2]; 1.95 g/ha)?
A: The average phytotox value was 27%.

Q: What about the average phytotox value ([2]; 3.9 g/ha) of the same compound?
A: The average phytotox value was 0%.

Q: What about the average phytotox value ([2]; 7.8 g/ha) of the same compound?
A: The average phytotox value was 0%.

Q: What about the average phytotox value ([2]; 15.6 g/ha) of the same compound?
A: Its average phytotox value is 21%.

Q: What about the average phytotox value ([3]; 1.95 g/ha) of the same compound?
A: The average phytotox value was 1%.

Q: What about the average phytotox value ([3]; 3.9 g/ha) of the same compound?
A: The average phytotox value was 14%.

Q: And the average phytotox value ([3]; 7.8 g/ha)?
A: The average phytotox value was 8%.

Q: And the average phytotox value ([3]; 15.6 g/ha)?
A: The average phytotox value was 26%.

Q: And the average phytotox value ([4]; 1st listed line, 3.9 g/ha)?
A: The average phytotox value was 1%.

Q: And the average phytotox value ([4]; 1st listed line, 7.8 g/ha)?
A: Its average phytotox value is 5%.

Q: And the average phytotox value ([4]; 1st listed line, 15.6 g/ha)?
A: Its average phytotox value is 8%.

Q: And the average phytotox value ([4]; 1st listed line, 31.25 g/ha)?
A: The average phytotox value was 27%.

Q: What about the average phytotox value ([4]; 2nd listed line, 3.9 g/ha) of the same compound?
A: Its average phytotox value is 1%.

Q: What about the average phytotox value ([4]; 2nd listed line, 7.8 g/ha) of the same compound?
A: The average phytotox value was 10%.

Q: What about the average phytotox value ([4]; 2nd listed line, 15.6 g/ha) of the same compound?
A: Its average phytotox value is 41%.

Q: What about the average phytotox value ([4]; 2nd listed line, 31.25 g/ha) of the same compound?
A: Its average phytotox value is 50%.

Q: What about the average phytotox value ([5]; BnaA03g55200D S1038F event 1, 5*10^-8M) of the same compound?
A: The average phytotox value was 40%.

Q: What about the average phytotox value ([5]; BnaA03g55200D S1038F event 1, 10^-6M) of the same compound?
A: Its average phytotox value is 80%.

Q: What about the average phytotox value ([5]; BnaA03g55200D S1038F event 1, 10^-7M) of the same compound?
A: The average phytotox value was 75%.

Q: What about the average phytotox value ([5]; BnaA03g55200D S1038F event 1, 10^-8M) of the same compound?
A: Its average phytotox value is 15%.

Q: What about the average phytotox value ([5]; BnaA03g55200D S1038F event 1, 10^-9M) of the same compound?
A: The average phytotox value was 0%.

Q: And the average phytotox value ([5]; BnaA03g55200D S1038F event 2, 5*10^-8M)?
A: Its average phytotox value is 65%.

Q: What about the average phytotox value ([5]; BnaA03g55200D S1038F event 2, 10^-6M) of the same compound?
A: Its average phytotox value is 90%.

Q: And the average phytotox value ([5]; BnaA03g55200D S1038F event 2, 10^-7M)?
A: Its average phytotox value is 75%.

Q: And the average phytotox value ([5]; BnaA03g55200D S1038F event 2, 10^-8M)?
A: The average phytotox value was 0%.

Q: And the average phytotox value ([5]; BnaA03g55200D S1038F event 2, 10^-9M)?
A: The average phytotox value was 0%.

Q: And the average phytotox value ([5]; BnaA03g55200D S1038F event 3, 5*10^-8M)?
A: Its average phytotox value is 65%.

Q: What about the average phytotox value ([5]; BnaA03g55200D S1038F event 3, 10^-6M) of the same compound?
A: The average phytotox value was 90%.

Q: What about the average phytotox value ([5]; BnaA03g55200D S1038F event 3, 10^-7M) of the same compound?
A: Its average phytotox value is 80%.

Q: And the average phytotox value ([5]; BnaA03g55200D S1038F event 3, 10^-8M)?
A: Its average phytotox value is 0%.

Q: And the average phytotox value ([5]; BnaA03g55200D S1038F event 3, 10^-9M)?
A: Its average phytotox value is 0%.

Q: And the average phytotox value ([6]; BnaA03g55200D S1041L event 1, 5*10^-8M)?
A: Its average phytotox value is 35%.

Q: What about the average phytotox value ([6]; BnaA03g55200D S1041L event 1, 10^-6M) of the same compound?
A: The average phytotox value was 95%.

Q: And the average phytotox value ([6]; BnaA03g55200D S1041L event 1, 10^-7M)?
A: The average phytotox value was 75%.

Q: And the average phytotox value ([6]; BnaA03g55200D S1041L event 1, 10^-8M)?
A: Its average phytotox value is 0%.

Q: What about the average phytotox value ([6]; BnaA03g55200D S1041L event 1, 10^-9M) of the same compound?
A: The average phytotox value was 0%.

Q: And the average phytotox value ([6]; BnaA03g55200D S1041L event 2, 5*10^-8M)?
A: The average phytotox value was 50%.

Q: What about the average phytotox value ([6]; BnaA03g55200D S1041L event 2, 10^-6M) of the same compound?
A: Its average phytotox value is 90%.

Q: What about the average phytotox value ([6]; BnaA03g55200D S1041L event 2, 10^-7M) of the same compound?
A: Its average phytotox value is 80%.

Q: What about the average phytotox value ([6]; BnaA03g55200D S1041L event 2, 10^-8M) of the same compound?
A: Its average phytotox value is 10%.

Q: What about the average phytotox value ([6]; BnaA03g55200D S1041L event 2, 10^-9M) of the same compound?
A: The average phytotox value was 0%.

Q: What about the average phytotox value ([6]; BnaA03g55200D S1041L event 3, 5*10^-8M) of the same compound?
A: The average phytotox value was 60%.

Q: And the average phytotox value ([6]; BnaA03g55200D S1041L event 3, 10^-6M)?
A: Its average phytotox value is 85%.

Q: What about the average phytotox value ([6]; BnaA03g55200D S1041L event 3, 10^-7M) of the same compound?
A: Its average phytotox value is 70%.

Q: What about the average phytotox value ([6]; BnaA03g55200D S1041L event 3, 10^-8M) of the same compound?
A: Its average phytotox value is 0%.

Q: And the average phytotox value ([6]; BnaA03g55200D S1041L event 3, 10^-9M)?
A: Its average phytotox value is 0%.

Q: What about the average phytotox value ([6]; BnaA03g55200D S1041L event 4, 5*10^-8M) of the same compound?
A: The average phytotox value was 50%.

Q: And the average phytotox value ([6]; BnaA03g55200D S1041L event 4, 10^-6M)?
A: The average phytotox value was 85%.

Q: What about the average phytotox value ([6]; BnaA03g55200D S1041L event 4, 10^-7M) of the same compound?
A: Its average phytotox value is 60%.

Q: What about the average phytotox value ([6]; BnaA03g55200D S1041L event 4, 10^-8M) of the same compound?
A: Its average phytotox value is 10%.

Q: What about the average phytotox value ([6]; BnaA03g55200D S1041L event 4, 10^-9M) of the same compound?
A: The average phytotox value was 0%.

Q: Which results are given for `Nc1nc(Nc2nc(F)c(F)c(Cl)c2F)nc(C2(F)CCCC2)n1` [N2-(4-chloro-3,5,6-trifluoro-2-pyridyl)-6-(1-fluorocyclopentyl)-1,3,5-triazine-2,4-diamine]?
A: average phytotox value ([7]; 7.8 g/ha): 6%; average phytotox value ([7]; 15.6 g/ha): 9%; average phytotox value ([7]; 31.25 g/ha): 54%; average phytotox value ([7]; 62.5 g/ha): 64%; average phytotox value ([4]; 1st listed line, 7.8 g/ha): 7%; average phytotox value ([4]; 1st listed line, 15.6 g/ha): 17%; average phytotox value ([4]; 1st listed line, 31.25 g/ha): 47%; average phytotox value ([4]; 1st listed line, 62.5 g/ha): 54%; average phytotox value ([4]; 2nd listed line, 7.8 g/ha): 10%; average phytotox value ([4]; 2nd listed line, 15.6 g/ha): 33%; average phytotox value ([4]; 2nd listed line, 31.25 g/ha): 68%; average phytotox value ([4]; 2nd listed line, 62.5 g/ha): 71%; average phytotox value (Brassica napus wildtype [8]; 5*10-7, 7 days after treatment): 78%; average phytotox value (Brassica napus wildtype [8]; 5*10^-8M, 7 days after treatment): 18%; average phytotox value (Brassica napus wildtype [8]; 10^-6M, 7 days after treatment): 85%; average phytotox value (Brassica napus wildtype [8]; 10^-7M, 7 days after treatment): 56%; average phytotox value (Brassica napus wildtype [8]; 10^-8M, 7 days after treatment): 8%; average phytotox value ([9]; 5*10-7): 75%; average phytotox value ([9]; 5*10^-8M): 10%; average phytotox value ([9]; 10^-6M): 80%; average phytotox value ([9]; 10^-7M): 10%; average phytotox value ([9]; 10^-8M): 0%
